# Patent publication US7358379B2, “Steroid conjugates, preparation thereof and the use thereof” (Bionature E.A. Limited, priority 2002, dated 2008)
# Key:
# [1] = system: membrane testosterone receptors in LNCaP cells; assay: Displacement binding of [3H]testosterone on LNCaP cell membranes; parameters: species or system human; conditions: 5 nM [3H]testosterone, competitor 10^-12-10^-6 M
# Description: (§1) Cells, cultured in 150 cm^2 flasks without serum, were washed twice with phosphate-buffered saline (PBS), removed by scraping and centrifuged at 1500 rpm. Pelleted cells were homogenized by sonication in 50 mM Tris-HCl buffer pH 7.4 containing freshly added protease inhibitors (10 μg/ml PMSF and 1 μg/ml aprotinin). Unbroken cells were removed by centrifugation at 2500 g for 15 min. Membranes were obtained by centrifugation at 45,000 g for 1 hour, and washed once by the same buffer. Protein concentration was measured by the method of Bradford.
# (§2) Saturation binding experiments were performed in a final volume of 0.1 ml, containing cell membranes at a final protein concentration of 2 mg/ml and at least 6 different concentrations of [^3H]testosterone (ranging 2-50 nM) without (total binding) or with (non-specific binding) a 100-fold molar excess of unlabelled androgen (DHT). […] In both types of binding experiments, after an overnight incubation at 4° C., bound radioactivity was separated by filtration under reduced pressure through GF/B filters previously soaked in 0.5% polyethylenimine (PEI) in water and rinsed three times with ice-cold Tris-HCl buffer. Filters were mixed with 4 ml scintillation cocktail and the bound radioactivity was counted in a scintillation counter (Tricarb, Series 4000, Packard) with 60% efficiency for Tritium. […]
# [2] = system: FAK→PI-3 kinase→Cdc42/Rac1→actin reorganization in LNCaP cells; assay: Signalling FAK, PI-3 kinase, Cdc42/Rac1, actin reorganization (immunoprecipitation, kinase assays, affinity precipitation); format: cell-based, human
# Description: Testosterone-BSA or DHT-treated, as well as untreated (control) cells were washed three times with ice-cold PBS and suspended in cold lysis buffer containing 1% Nonidet P-40, 20 mM Tris pH 7.4 and 137 mM NaCl, supplemented with protease and phosphatase inhibitors. Cleared lysates were preadsorbed with protein A-Sepharose for 1 h at 4° C., centrifuged and the supernatants (equal amounts of protein) were subjected to immunoprecipitation using the indicated antibodies and the protein A-Sepharose beads.
# The lipid kinase activity of PI-3 kinase was measured by the method of Auger et al with minor modifications. Protein A-Sepharose beads containing immunoprecipitated phosphotyrosine proteins were washed three times with Buffer A (20 mM Tris pH 7.4, 137 mM NaCl, 1 mM CaCl2, 1 mM MgCl2, 1% Nonidet P-40, 0.1 mM Na3VO4), three times with 5 mM LiCl in 0.1 M Tris (pH 7.4) and twice with TNE (10 mM Tris pH 7.4, 150 mM NaCl, 5 mM EDTA, 0.1 mM Na3VO4). […]
# For immunoblot analysis, the cell lysates or the immunoprecipitates were suspended in Laemmli's sample buffer and separated by SDS-PAGE. […] Blots were developed using the ECL system and the band intensities were quantified by PC-based image analysis (Image Analysis Inc., Ontario, Canada). […]
# [3] = system: membrane testosterone receptors in LNCaP cells; assay: Saturation binding of [3H]testosterone to LNCaP cell membranes; parameters: species or system human; conditions: [3H]testosterone 2-50 nM, LNCaP membranes 2 mg/ml, overnight 4° C., non-specific binding with excess DHT; read-out: KD (Scatchard analysis)
# Description: as §1, §2
# [4] = system: LNCaP tumors in nude mice; assay: In vivo effect in nude mice bearing implanted LNCaP tumors; conditions: four weeks
# Description: FIG. 9 presents the effect of testosterone-BSA administration in nude mice, bearing implanted tumors. Arrows show the injection times of testosterone-BSA (500 μl of a 5×10^−6 M solution) with or without addition of 10 mg/kg Taxol®.
# Nude mice were injected in the back with 5×10^6 LNCaP cells diluted in Matrigel® (Sigma, St Louis, Mo.) in a total volume of 0.1 ml. After 4 weeks, macroscopical tumors were developed, and treatment was initiated, as follows: Drugs, diluted in PBS were injected intraperitoneally 3 times per week, in a total volume of 0.5 ml. Animals were divided in four groups: The first group received 5×10^−6 M BSA. The second group was injected with 5×10^−6 M testosterone-BSA conjugate. The third group was injected with 10 mg/ml Taxol®, while in the fourth group a combination of testosterone-BSA and Taxol® was introduced. Tumors were measured after four weeks of treatment. Tumors were excised, measured, weighted and send to a pathologist for further analysis.
# As presented in FIG. 9, testosterone-BSA induced a time-dependent decrease in tumor mass by 53%. Addition of Taxol® produces a dramatic decrease of tumor weight by 77%. […] Therefore it is possible that the decrease if tumor mass could be greater for longer periods of treatment In addition, apoptosis was observed histologically in all tumors studied.
# LNCaP cells = assay: Confocal laser microscopy of membrane binding on LNCaP cells; format: cell-based, human; conditions: 30 min incubation
# Description: LNCaP cells were allowed to grow on poly-L-lysine coated glass coverslips for at least 48 hours before culture medium was replaced with serum free medium. After a 24-hour period, cells were washed twice with PBS and incubated with Testosterone-BSA-FITC for 30 min in the presence or in the absence of DHT. As a negative control BSA-FITC was used. Cells were then washed twice with PBS and fixed with 2% PFA in PBS for 30 min. Coverslips were mounted on to slides using a 1:1 (v/v) mixture of glycerol and Vestashield (Vector, Burlingame, Calif.). Specimens were analysed using a confocal laser scanning microscope (CLSM) (Leica TCS-NT, Lasertechnik, Heidelberg, Germany).
# (§3) The presence of membrane testosterone receptors was equally identified using the testosterone analog testosterone3-(O-carboxymethyl)oxime-BSA-FITC, obtained from Sigma (St Louis, Mo.). This analog is not capable to penetrate the cells, because of a covalent attachment of the steroid with BSA. […] The membrane binding was equally verified by confocal laser microscopy, as shown in the right panel of FIG. 2.
# [5] = system: membrane testosterone receptors in LNCaP cells; assay: Flow cytometry detection of membrane binding on LNCaP cells; parameters: species or system human; conditions: 10^-7 M
# Description: LNCaP cells, cultured in serum free medium for 24 hrs, were detached from the culture flask by scraping and suspended in PBS at a density of 10^6 cells/ml. They were incubated at room temperature with 10^−7 M testosterone-BSA-FITC conjugate for different periods of time (1 min to 1 hour). A thousand-fold BSA-FITC was used to determine non-specific binding. Cells were analysed by flow cytometry using a Coulter Epics L-MCL apparatus (Beckman-Coulter Inc. Foullerton Calif., USA) in a sample size of 10,000 cells gated on the basis of forward and side scatter. Testosterone3-(O-carboxymethyl)oxime-BSA-FITC (named testosterone-BSA-FITC), testosterone3-(O-carboxymethyl)oxime-BSA (named testosterone-BSA), estradiol6-(O-carboxymethyl)oxime-BSA-FITC (named estradiol-BSA-FITC), progesterone3-(O-carboxymethyl)oxime-BSA-FITC (named progesterone-BSA-FITC) and BSA-FITC were obtained from Sigma (St Louis, Mo.).
# as §3
# [6] = system: prostate cancer LNCaP cells; assay: Cell number by tetrazolium salt assay; format: cell-based, human; conditions: 24 hours
# Description: The human prostate cancer LNCaP cell line, originally isolated from a lymph node metastasis of prostate adenocarcinoma, was purchased from DSMZ (Braunschweig, Germany). Cells were cultured in RPMI 1640 medium supplemented with 10% heat inactivated fetal bovine serum (FBS) at 37° C. in a humidified atmosphere of 5% CO2 in air. They were subcultured once a week and incubated in serum-free medium for 24 h before any experiment. All culture media were purchased from Gibco BRL (Life Technologies, Paisley, UK).
# Cell number was assayed using the tetrazolium salt assay. Cells were incubated for 3 h at 37° C. with the tetrazolium salt (3-(4,5 dimethylthiazol-2-yl)-2,5 diphenyl tetrazolium bromide, Sigma, St Louis, Mo.). Living cells reduced the dye to purple formazan seen as dark blue crystals. At the end of the incubation period they were dissolved with propanol-1 and the absorbance was measure at 575 nm, within one hour.
# In view of the above results, we incubated prostate cancer LNCaP cells with testosterone-BSA alone (10^−7 M) or together with Taxol® (10^−8 M) for 24 hours. […] In addition, a potentiation of the action of Taxol® by ˜7% was also found. […]
# [7] = system: actin cytoskeleton of LNCaP human prostate cancer cells; assay: Determination of monomeric and polymerized actin; format: cell-based; conditions: 10^-7 M, 10 min
# Description: For measurements of the monomeric (Triton soluble) and polymerized (Triton insoluble) actin, LNCaP cells were incubated for 10 min with or without DHT or testosterone-BSA (10^−7 M). Then, 500 μl of Triton-extraction buffer (0.3% TritonX-100, 5 mM Tris, pH 7.4, 2 mM EGTA, 300 mM sucrose, 2 μM phalloidin, 1 mM PMSF, 10 μg/ml leupeptin, 20 μg/ml aprotinin, 1 mM sodium orthovanadate, and 50 mM NaF) were added, and the mixture was incubated for 5 minutes on ice. After removing the buffer, soluble proteins were precipitated with equal volumes of 6% PCA. The Triton-insoluble fraction remaining on the plate was precipitated with 1 ml of 3% PCA. Equal volumes of each fraction were subjected to SDS-polyacrylamide gel electrophoresis (SDS-PAGE). The resulting protein-bands were transferred onto nitrocellulose membrane, and the membrane was blocked with 5% nonfat dry milk in TBS-T (20 mM Tris pH 7.6, 137 mM NaCl, 0.05% Tween-20) for 1 h at room temperature. Antibody solutions (in TBS-T) were added for 1 h at room temperature [monoclonal mouse anti-actin first antibody (Amersham-Pharmacia, Bukinghamshire, UK) and second horseradish peroxidase-coupled antibody (Chemicon, Temecula, Calif.)]. Blots were developed using the ECL system (Amersham-Pharmacia, Bukinghamshire, UK) and the band intensities were quantified by PC-based image analysis (Image Analysis Inc., Ontario, Canada). […]
molecule,measurement,setting,value
C[C@]12CCC(=O)C[C@@H]1CC[C@@H]1[C@@H]2CC[C@]2(C)[C@@H](O)CC[C@@H]12 [DHT],displacement of radiolabeled testosterone,[1],produced a displacement of radiolabeled testosterone
CC(=O)[C@H]1CC[C@H]2[C@@H]3CCC4=CC(=O)CC[C@]4(C)[C@H]3CC[C@]12C [progesterone],lower affinity in displacing radiolabelled testosterone (fold),[1]; compared with DHT,10^2 fold
C[C@]12CC[C@H]3[C@@H](CCC4=CC(=O)CC[C@@]43C)[C@@H]1CC[C@@H]2O [testosterone],activation of signalling cascade FAK→PI-3 kinase→Cdc42/Rac1→actin reorganization,[2],less active than testosterone-BSA conjugate
same,Kd,[3],10.9 nM
testosterone3-(O-carboxymethyl)oxime-BSA [testosterone-BSA],decrease in tumor mass,"[4]; nude mice with LNCaP tumors, testosterone-BSA 5×10^-6 M i.p. 3 times per week",53%
same,decrease of tumor weight,"[4]; nude mice with LNCaP tumors, testosterone-BSA 5×10^-6 M with addition of Taxol®, i.p. 3 times per week",77%
same,tolerance of treatment,"[4]; nude mice, 0.5 ml of 5×10^-6 M intraperitoneally 3 times per week",supported very well
same,localisation of staining (internalization),LNCaP cells,only membrane staining was found
same,time at which association with membrane receptors was observed,[5]; flow cytometry,1 min
same,time at which association with membrane receptors was maximal,"[5]; flow cytometry, unchanged after 30 min",10 min
same,membrane binding by flow cytometry,[5]; room temperature,specific membrane binding
same,potentiation of the action of Taxol®,[6]; testosterone-BSA 10^-7 M together with Taxol® 10^-8 M,~7%
same,decrease of cells,[6]; testosterone-BSA alone 10^-7 M,50%
same,ratio of soluble (monomeric) to insoluble (polymerised) actin,[7],significant decrease
